What was measured:
Type in all cases: cell-based
MCF7 breast cancer cells = assay: Cell viability assay (MTT/resazurin), MCF7; conditions: Homo sapiens, read-out: Antiproliferative Activity, GI50
Source text: (§1) Cancer cell lines derived from leukemia (MV4-11 and U937), breast (MCF7 (Rb-positive) and MDA-MB-231(Rb-negative)), and ovarian (A2780, OVCAR5, OAW28, OV90, Cov318, and Cov504) cancers, and glioblastoma (U87, T98G and U251) were acquired from the cell bank at Drug Discovery and Development, University of South Australia, and cultured according to the American Type Culture Collection (ATCC) recommendation in Roswell Park Memorial Institute (RPMI)-1640, Dulbecco’s Modified Eagle’s Medium (DMEM), or Minimum Essential Media (MEM), with 10% fetal bovine serum (Sigma-Aldrich, Castle Hill, NSW, Australia) within a humidified incubator at 37 °C in the presence of 5% CO2.
(§2) The MTT (Life Technologies, Mulgrave, VIC, Australia) and resazurin (Sigma-Aldrich) assays were used to determine the antiproliferative activities of the compounds initially at 1 µM against the cancer cell lines stated above.

A2780 cells [1] = assay: Colony formation (crystal violet), A2780; conditions: A2780, 10 days; 15 at 0.5 and 2 µM, CYC065 at 0.5 µM
Description: (§3) Briefly, ovarian cancer cells (i.e., A2780, OVCAR5, and OV90) seeded in six-well plates were adhered for 6 h and treated with 15. The medium that contained the compound was then changed every 72 h. Ten days after treatment, the cells were washed with PBS, fixed, and stained with crystal violet staining solution (0.05% crystal violet, 1% formaldehyde, 1% PBS, and 1% ethanol), and colonies were quantified using ImageJ software (National Institute of Health, Maryland, USA), with data presented as percentages of the control cells.

OVCAR5 cells [2] = assay: Colony formation (crystal violet), OVCAR5; conditions: OVCAR5, 10 days; 15 at 0.5 and 2 µM, CYC065 at 0.5 µM
Description: as §3

OVCAR5 cells [3] = assay: Western blot analysis of OVCAR5 cells
Description: Western blot analysis of the compounds was carried out as previously reported. The antibodies were purchased from Cell Signaling Technology (Danvers, MA, USA).

OV90 cells = assay: Colony formation (crystal violet), OV90; conditions: OV90, 10 days
Description: as §3

U87 glioblastoma cells = assay: Cell viability assay (MTT/resazurin), U87; conditions: read-out: Antiproliferative Activity, GI50
Source text: as §1, §2

U251 glioblastoma cells = assay: Cell viability assay (MTT/resazurin), U251; conditions: Homo sapiens, U-251, read-out: Antiproliferative Activity, GI50
Source text: as §1, §2

[4] = tested on: panel of 13 cancer cell lines; assay: Antiproliferative activity, cancer cell line panel; conditions: all cancer cell lines tested; read-out: GI50 range over the cancer cell line panel
Source text: as §1, §2

A2780 cells [5] = assay: Cell cycle analysis by flow cytometry, A2780; conditions: A2780, 2 µM, 48 h
Description: The effect of the compounds on cell cycle distribution was evaluated following a previously reported method. Briefly, six-well plates (Sigma-Aldrich, NSW, Australia) were seeded with about 1–2 × 10^5 cells/well in 2 mL growth medium, incubated at 37 °C and 5% CO2 overnight, and treated with various concentrations of the test compounds and incubated for 48 h. The wells were collected by trypsinization, transferred into fluorescence-activating cell sorting (FACS) tubes, washed with 1 × phosphate-buffered saline (1 × PBS) twice, fixed in 70% (v/v) ice-cold ethanol for 15 min, and centrifuged at 300× g for 5 min. The cell pellets were then collected, stained with 200 µL of the cell cycle solution (comprising 50.0 μg/mL PI, 0.1 mg/mL RNase A, and 0.05% Triton X-100), and incubated for 1.5 h at room temperature in the dark. Finally, the DNA content was determined by a flow cytometer (CytoFLEX) and analyzed by CytExpert 2.1 software (Beckman Coulter, Brea, CA, USA).

[6] = tested on: Cov318 ovarian cancer cells; assay: Cell viability assay (MTT/resazurin), Cov318; conditions: read-out: Antiproliferative Activity, GI50
Source text: as §1, §2

U937 leukemia cells = assay: Cell viability assay (MTT/resazurin), U937; conditions: Homo sapiens, U-937, read-out: Antiproliferative Activity, GI50
Source text: as §1, §2

OVCAR5 cells [7] = assay: Annexin V/PI apoptosis assay, OVCAR5; conditions: 48 h
Description: Annexin V-fluorescein isothiocyanate (FITC) apoptosis detection kit I (consisting of a ten-time stock solution of binding buffer, FITC–annexin V, and PI staining solution) was used to determine the effect of the compounds on cancer cell survival as previously reported. Briefly, six-well plates (Sigma-Aldrich, NSW, Australia) were seeded with about 1–2 × 10^5 cells/well in 2 mL growth medium, incubated at 37 °C and 5% CO2 overnight, treated with various concentrations of the test compounds, and incubated for 48 h. The wells were collected by trypsinization, transferred into FACS tubes, washed twice with 1 × PBS, and centrifuged at 300× g for 5 min. The pellets were then suspended in 100 µL of 1 × binding buffer and incubated in the dark with 3 µL of PI and 3 µL of FITC-conjugated annexin V solutions for 15 min. Finally, 200 µL of binding buffer was added to each sample and analyzed by the CytoFLEX cytometer. The extent of apoptotic cell death was quantified as the sum of the percentages of early apoptotic cells (annexin V-positive and PI-negative) and late apoptotic cells (both annexin–V- and PI-positive) and presented graphically as a contour diagram relative to the untreated control.

T98G glioblastoma cells = assay: Cell viability assay (MTT/resazurin), T98G; conditions: Homo sapiens, read-out: Antiproliferative Activity, GI50
Source text: as §1, §2

[8] = tested on: OV90 ovarian cancer cells; assay: Cell viability assay (MTT/resazurin), OV90; conditions: Homo sapiens, OV-90, read-out: Antiproliferative Activity, GI50
Source text: as §1, §2

GI50 (MCF7 breast cancer cells): 342 nM
GI50 (U87 glioblastoma cells): 560 nM
GI50 (U251 glioblastoma cells): 350 nM
GI50 [4]: 127 to 560 nM
GI50 [6]: 488 nM
GI50 (U937 leukemia cells): 186 nM
GI50 (T98G glioblastoma cells): 380 nM
GI50 [8]: 390 nM
SMILES: Cn1cc(-c2nc(Nc3cn[nH]c3)ncc2Cl)cn1 [Compound 15, 5-Chloro-4-(1-methyl-1H-pyrazol-4-yl)-N-(1H-pyrazol-4-yl)pyrimidin-2-amine]
effect on colony formation (A2780 cells [1]): inhibited
effect on colony formation (OVCAR5 cells [2]): inhibited
p-FAK(Ser732) level (CDK5 kinase activity in cells) (OVCAR5 cells [3]; OVCAR5, 2 µM, 48 h): completely abolished
p-RNAPol-II(Ser2) level (CDK9 kinase activity in cells) (OVCAR5 cells [3]; OVCAR5, 2 µM, 48 h): completely abolished
p-Rb(Thr821) level (CDK2 kinase activity in cells) (OVCAR5 cells [3]; OVCAR5, 2 µM, 48 h): completely abolished
anti-apoptotic protein MCL1 (OVCAR5 cells [3]; OVCAR5, 48 h): downregulation
caspase-3 (OVCAR5 cells [3]; OVCAR5, 48 h): cleavage
phosphorylated histone H2AX (p-H2AX), DNA damage marker (OVCAR5 cells [3]; OVCAR5, 48 h): appearance
effect on colony formation (OV90 cells; 0.5 µM): partial inhibition
effect on colony formation (OV90 cells; 15 at 0.5 and 2 µM, CYC065 at 0.5 µM): inhibited
S-phase cells (A2780 cells [5]): 26%
viability at 0.5 µM (OVCAR5 cells [7]; Homo sapiens, OVCAR-5, OVCAR5, 0.5 µM, read-out: Q1-LL, viable cells): 67.4%
viability at 2 µM (OVCAR5 cells [7]; Homo sapiens, OVCAR-5, OVCAR5, 2 µM, read-out: Q1-LL, viable cells): 57.8%
apoptosis (annexin V positive, early + late) (OVCAR5 cells [7]; OVCAR5, 0.5 µM): 30%
apoptosis (annexin V positive, early + late) (OVCAR5 cells [7]; OVCAR5, 2 µM): 38%

Reference: article PMC10096391, “Discovery of N,4-Di(1H-pyrazol-4-yl)pyrimidin-2-amine-Derived CDK2 Inhibitors as Potential Anticancer Agents: Design, Synthesis, and Evaluation” (Molecules, 2023)
